# Assay results as given in patent US20260258033A1, “2,7-Naphthyridine Compounds as MASTL Inhibitors” (Pfizer Inc., priority 2022, published 2026).
# Target: T1, Full-length human recombinant N-term FLAG-tagged MASTL protein (Homo sapiens, UniProt Q96GX5)
# T1 sequence (Q96GX5 1-879): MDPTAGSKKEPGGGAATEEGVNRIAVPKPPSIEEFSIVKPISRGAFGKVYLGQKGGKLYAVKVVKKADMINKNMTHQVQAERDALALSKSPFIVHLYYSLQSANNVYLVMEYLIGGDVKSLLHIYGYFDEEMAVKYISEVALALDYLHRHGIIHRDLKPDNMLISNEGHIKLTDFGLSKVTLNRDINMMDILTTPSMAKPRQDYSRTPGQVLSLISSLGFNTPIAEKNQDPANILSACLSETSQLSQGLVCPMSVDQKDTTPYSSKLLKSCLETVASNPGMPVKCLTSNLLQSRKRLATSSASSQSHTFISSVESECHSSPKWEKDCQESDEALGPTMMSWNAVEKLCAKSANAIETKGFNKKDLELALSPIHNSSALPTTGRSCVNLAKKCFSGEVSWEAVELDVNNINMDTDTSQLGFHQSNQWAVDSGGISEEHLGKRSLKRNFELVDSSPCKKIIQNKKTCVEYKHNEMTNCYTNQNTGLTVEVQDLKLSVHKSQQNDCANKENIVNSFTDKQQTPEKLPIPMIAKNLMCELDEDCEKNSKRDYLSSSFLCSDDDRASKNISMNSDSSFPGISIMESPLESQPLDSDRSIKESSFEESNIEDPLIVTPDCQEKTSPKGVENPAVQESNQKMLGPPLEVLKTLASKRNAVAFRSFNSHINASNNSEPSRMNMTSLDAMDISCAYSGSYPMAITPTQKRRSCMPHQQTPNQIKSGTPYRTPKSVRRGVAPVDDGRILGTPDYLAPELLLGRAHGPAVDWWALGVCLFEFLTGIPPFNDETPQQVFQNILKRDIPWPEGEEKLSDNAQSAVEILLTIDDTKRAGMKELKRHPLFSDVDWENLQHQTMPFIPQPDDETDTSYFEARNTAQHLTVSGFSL
# Experiment: MASTL enzyme kinase assay (CHEF PhosphoSens)
# Conditions: MASTL Ki (nM), 3 nM MASTL, 1 mM ATP, room temperature; geometric mean of at least 3 independent determinations (* denotes n = 2)
# Text: MASTL enzyme kinase assay was used to measure the inhibition constant (Ki) of Examples of the present invention.
# Full-length human recombinant N-term FLAG-tagged MASTL protein (construct LJIC-3077G2), activated by CDK1, was produced at Pfizer Inc by expression in baculovirus-infected insect cells. All reagents were purchased from Sigma-Aldrich, Inc (St. Louis, MO), unless specified otherwise. Tween™ 20 detergent (10% Solution) was purchased from EMD Millipore Corp (Billerica, MA). The CHEF phosphoacceptor peptide substrate (AQT0693) was purchased from AssayQuant technologies, Inc (Marlboro, MA). […] The reactions contained 1 mM ATP and were initiated by the addition of enzyme. Initial reaction velocities were determined by following the fluorescence (λex=360 nm, λem=485 nm) of appropriate CHEF peptide substrate for 120 minutes in an end-point mode in a SpectraMax Paradigm Microplate Reader (Molecular Devices, LLC. San Jose, California). The extents of reactions were estimated to be <20%.
row,Ki [nM],SMILES
1,0.12,"Cn1nncc1-c1cc2cc(Nc3cc(C(N)CC(F)(F)F)ccn3)ncc2c(N)n1 (single isomer, unassigned) [Example 17, N^6-(4-(1-amino-3,3,3-trifluoropropyl)pyridin-2-yl)-3-(1-methyl-1H-1,2,3-triazol-5-yl)-2,7-naphthyridine-1,6-diamine]"
2,0.088,"Cn1nncc1-c1cc2cc(Nc3cc(C(N)CC(F)(F)F)ccn3)ncc2c(N)n1 (single isomer, unassigned) [Example 18, N^6-(4-(1-amino-3,3,3-trifluoropropyl)pyridin-2-yl)-3-(1-methyl-1H-1,2,3-triazol-5-yl)-2,7-naphthyridine-1,6-diamine]"
3,0.047,"CNC(C)(c1ccnc(Nc2cc3cc(-c4cnnn4C)nc(N)c3cn2)c1)C1CC1 (single isomer, unassigned) [Example 19, N^6-(4-(1-cyclopropyl-1-(methylamino)ethyl)pyridin-2-yl)-3-(1-methyl-1H-1,2,3-triazol-5-yl)-2,7-naphthyridine-1,6-diamine]"
4,0.049,"CNC(C)(c1ccnc(Nc2cc3cc(-c4cnnn4C)nc(N)c3cn2)c1)C1CC1 (single isomer, unassigned) [Example 20, N^6-(4-(1-cyclopropyl-1-(methylamino)ethyl)pyridin-2-yl)-3-(1-methyl-1H-1,2,3-triazol-5-yl)-2,7-naphthyridine-1,6-diamine]"
5,0.078,"Cn1nncc1-c1cc2cc(Nc3cc(C(C)(N)CC(F)(F)F)ccn3)ncc2c(N)n1 (single isomer, unassigned) [Example 25, N^6-(4-(2-amino-4,4,4-trifluorobutan-2-yl)pyridin-2-yl)-3-(1-methyl-1H-1,2,3-triazol-5-yl)-2,7-naphthyridine-1,6-diamine]"

# The remaining lines, values behind:
row,SMILES,Ki [nM]
1,"CCC1(NC)CCc2c1ccnc2Nc1cc2cc(-c3cnnn3C)nc(N)c2cn1 (single isomer, unassigned) [Example 3, N^6-(5-ethyl-5-(methylamino)-6,7-dihydro-5H-cyclopenta[c]pyridin-1-yl)-3-(1-methyl-1H-1,2,3-triazol-5-yl)-2,7-naphthyridine-1,6-diamine]",0.36
2,"CCC1(NC)CCc2c1ccnc2Nc1cc2cc(-c3cnnn3C)nc(N)c2cn1 (single isomer, unassigned) [Example 4, N^6-(5-ethyl-5-(methylamino)-6,7-dihydro-5H-cyclopenta[c]pyridin-1-yl)-3-(1-methyl-1H-1,2,3-triazol-5-yl)-2,7-naphthyridine-1,6-diamine]",0.47
3,"CCC1(NC)CCc2cnc(Nc3cc4cc(-c5cnnn5C)nc(N)c4cn3)cc21 (single isomer, unassigned) [Example 5, N^6-(5-ethyl-5-(methylamino)-6,7-dihydro-5H-cyclopenta[c]pyridin-3-yl)-3-(1-methyl-1H-1,2,3-triazol-5-yl)-2,7-naphthyridine-1,6-diamine]",0.033
4,"CCC1(NC)CCc2cnc(Nc3cc4cc(-c5cnnn5C)nc(N)c4cn3)cc21 (single isomer, unassigned) [Example 6, N^6-(5-ethyl-5-(methylamino)-6,7-dihydro-5H-cyclopenta[c]pyridin-3-yl)-3-(1-methyl-1H-1,2,3-triazol-5-yl)-2,7-naphthyridine-1,6-diamine]",0.076
5,"CCC(N)c1cc(Nc2cc3cc(-c4cnnn4C)nc(N)c3cn2)ncc1C (single isomer, unassigned) [Example 13, N^6-(4-(1-aminopropyl)-5-methylpyridin-2-yl)-3-(1-methyl-1H-1,2,3-triazol-5-yl)-2,7-naphthyridine-1,6-diamine]",0.065
6,"CCC(N)c1cc(Nc2cc3cc(-c4cnnn4C)nc(N)c3cn2)ncc1C (single isomer, unassigned) [Example 14, N^6-(4-(1-aminopropyl)-5-methylpyridin-2-yl)-3-(1-methyl-1H-1,2,3-triazol-5-yl)-2,7-naphthyridine-1,6-diamine]",0.098
